From patent publication US10196685B2, “Methods and systems for delivering process gases to critical process applications” (RASIRC, INC., priority 2014, dated 2019)
Values joined by “and” are separate entries in the source; they are usually repeats but may differ in a detail not shown here. Identical values can stand only once. Like-named read-outs stand apart in the source and are kept apart here.

Assays:
[1] = system: bovine genomic DNA; conditions: H2O2 505 ppm, 5 hours; for Average Decrease %: three replicates
Protocol: (§1) The initial test manifold was set to the following temperatures: • Zone 1=72° C. (Outlet temperature of SGD) • Zone 3=90° C.
The dilution gas flow rate was set to 5 slm, the RHS carrier gas to 180 sccm, and the SGD carrier gas flow to 1 slm. The RHS was then set to a 35° C. dew point, and the SGD to 30° C., running both gas streams to vent. The furnace and the heat-traced line temperatures were adjusted to achieve the desired gas temperatures. The SGD and RHS systems were allowed to stabilize. Samples were treated and processed as described in the following Examples.
A PCR plate to be used for quantifying amplifiable DNA was prepared with three replicates at each target input level (i.e., ranging from 0 ng to 1,000 ng). In each instance, measured aliquots of an aqueous solution of bovine genomic DNA were added to individual wells of the plate, and then dried. […] The chamber was initially purged for 15 minutes with CDA. […] Finally, the chamber was purged for an additional 15 minutes with CDA. Each well containing treated sample next received an aliquot of liquid reagents needed to carry out PCR amplification reactions. These reagents included: a pair of unlabeled DNA primers capable of amplifying the template; nucleotide triphosphates; buffer and salts; a dual-labeled hydrolysis probe specific for the DNA amplification product; and a thermostable DNA polymerase having 5′-3′ exonuclease activity. Amplification reactions were carried out using procedures familiar to those of ordinary skill in the art, and the appearance of fluorescent signals monitored as a function of time in a real-time format.

[2] = system: E. coli
Protocol: (§2) A 0.01 micron filter removed particulates from the gas stream. […] The water temperature was used to control the output of the humidifier. […] The furnace was used to keep the bacterial samples at temperature to prevent condensation. […] The boxed sections show the individual heat traced control zones for this experiment.
as §1

[3] = system: S. epi
Protocol: as §2, §1

[4] = system: E. coli; conditions: 1.7×10^7 cfu E. coli per spot; gas-phase H2O2 505 ppm, H2O 2122 ppm, 60 minutes, 25° C.
Description: The CDA gas pressure was maintained at 25 psig with the pressure regulator. A 0.01 micron filter removed particulates from the gas stream. The MFCs controlled the flow of the carrier gas streams and the dilution gas stream. […] The water temperature was used to control the output of the humidifier. The valves (V-1, V-2, and V-3) were used to send either the dry CDA gas stream, the RHS gas stream, and/or SGD gas stream through the furnace or out to vent. […] TC-3 and TC-4 were used to measure the gas temperature downstream of the SGD. The furnace was used to keep the bacterial samples at temperature to prevent condensation. TC-5 was used to measure the temperature in the quartz furnace. TC-6 was used to measure the gas temperature downstream of the furnace. A pressure gauge (PG-1) was used to monitor the pressure in the furnace. A Teledyne Prototype Analyzer was used to determine stability of the peroxide gas and its temperature was kept at 120° C. […] The boxed sections show the individual heat traced control zones for this experiment.
as §1
The dilution gas flow rate was set to 5 slm, the RHS carrier gas to 180 sccm, and the SGD carrier gas flow to 1 slm. The RHS was then set to a 35° C. dew point, and the SGD to 30° C., running both gas streams to vent. […]

[5] = system: bacterial samples; conditions: visible mist or fog, droplets condensed onto the sample

With `OO` [hydrogen peroxide gas, hydrogen peroxide] the Decrease % ([1]; Input 1 ng DNA, 25° C.) was 100%, the Remaining % ([1]; Input 1 ng DNA, 25° C.) was 0% and the “Calculated ng After Treatment” value ([1]; Input 1 ng DNA, H2O 2122 ppm, 25° C.) was 0 ng. For the same compound, the “Average Decrease %” value ([1]; Input 1 ng DNA, 25° C.) was 100.00%, the Decrease % ([1]; Input 10 ng DNA, 25° C.) was 98.55% and 99.28% and 94.5% and the “Average Decrease %” value ([1]; Input 10 ng DNA, 25° C.) was 97.44%. For the same compound, the Decrease % ([1]; Input 100 ng DNA, 25° C.) was 99.19% and 99.92% and 99.978%, the “Average Decrease %” value ([1]; Input 100 ng DNA, 25° C.) was 99.70% and the Decrease % ([1]; Input 1000 ng DNA, 25° C.) was 99.9957% and 99.9953% and 99.967%. The “Average Decrease %” value ([1]; Input 1000 ng DNA, 25° C.) was 99.99%, the “Reduction of amplifiable DNA” value ([1]; sample containing the greatest amount of starting material) was “about 4 logs” and the “Amplifiable DNA after treatment” value ([1]; sample containing the lowest amount of starting material) was “completely undetectable”. For the same compound, the “CONCENTRATION (E. coli in device with H2O2)” value ([2]; hydrogen peroxide gas 30 minutes, average H2O2 output 561±27 ppm, ≥25° C., stock 2.5 × 10^7) was “NO GROWTH”, the “Sterilization result in words” value ([2]; tests of FIGS. 32 and 33, 30 minutes H2O2 gas) was “completely sterilized” and the “CONCENTRATION (S. epi in device with H2O2)” value ([3]; 5 hour H2O2 exposure, average H2O2 output 518±14 ppm, stock 3.5 × 10^6) was “NO GROWTH”. The “Sterilization result in words” value ([3]; fifth experiment, 5 hour H2O2 exposure, 518±14 ppm) was “sterilized”, the “CONCENTRATION (S. epi in device with H2O2)” value ([3]; hydrogen peroxide gas 30 minutes, average H2O2 output 561±27 ppm, ≥25° C., stock 5.0 × 10^6, contamination believed) was ~10^4 to 10^5 estimated and the “Growth on tryptic soy agar plates after H202 treatment (bacterial slides)” value [4] was “No Growth”. The “Effect on the number of viable organisms” value [5] was “did not significantly reduce the number of viable organisms”.
